The results in this text go back to patent US12668568B2, “Adamantanyl-substituted benzamide compounds and their use as P2X7 receptor antagonists” (The University of Sydney, priority 2018, dated 2026).

The test system of one series is P-gp (human MDR1). The experiment in a line: MDCK P-glycoprotein bidirectional permeability assay. The class given is in vitro ADME, canine. Particulars: dog, 30 minute, 37° C.; for Papp A→B at 30 min, 10 μM: apical to basolateral; for Papp B→A at 30 min, 10 μM: basolateral to apical. The procedure: The transcellular permeability of test compounds and the influence of Pgp-mediated efflux on drug permeability was assessed using hMDR1-MDCK monolayers grown on filter supports. All compounds were dissolved in 100% DMSO to provide 10 mM stock solutions from which donor (dose) solutions were prepared in DMEM to give a final drug concentration of 10 μM. All dose solutions contained 10 μM propranolol as an internal standard. hMDR1-MDCK seeded filters were exposed to a fixed volume of the donor solution containing the compound of interest and its ability to traverse the monolayer and appear in the receiver compartment measured over a 30 minute period at 37° C. Bidirectional permeability measurements were derived by examining the transfer of compound in both the apical to basolateral compartment, and vice versa. Sample analysis was conducted using LC-MS/MS with the detection settings optimised for each test compound. Following analysis of the samples the apparent permeability coefficient (Papp, cm/sec) for the discovery compounds is determined using the following relationship: [formula] • VR=Volume of the receiver compartment • A=Surface area of the filter • CD=Drug concentration in the donor concentration • Δt=incubation time • ΔCR=the amount of drug detected in the receiver compartment The efflux ratio can be determined from these values by calculating the ratio of the Papp values derived in the B-A direction and A-B direction (i.e. Papp B-A/Papp A-B). […] P-gp) influencing transport.

Series [1] can be described thus: Lipophilicity: Log D7.4 determined by HPLC method. The class given is physicochemical. Particulars: for lipophilicity compared with compound 31: HPLC logD7.4; for logD7.4 / chromatographic logD: HPLC retention time, 65 v/v % methanol in 50 mM sodium phosphate buffer pH 7.4; for chromatographic logD: reversed-phase HPLC, Waters Sunfire C18 5 µm column, read-out: logD7.4. How it is done: Lipophilicity of the compounds was evaluated by an experimentally derived Log D7.4 value determined by a HPLC method.^1 It is preferred that the lipophilicity of the compounds is as low as possible.
High Performance Liquid Chromatography was performed on a Waters 2695 Separations module equipped with the Waters Alliance Series Column Heater (set at 30° C.) and Waters 2996 Photodiode Array (PDA) Detector. […] Standards and samples were dissolved in the elution solvent mixture and then filtered prior to injection. Data acquisition and processing was performed with the Waters Empower 2 software and Microsoft Excel™ was used for data analysis. All standards and samples were analyzed in triplicate.
. An […] curve was obtained (FIG. 1) which was fitted to the equation [Log D7.4=0.8342(RET)+1.7393] with an R^2 of 0.97.
The RET from three injections was averaged with the log D7.4 value extrapolated from the equation found in FIG. 1.

In a further series the target is T1, CYP1A2 (Homo sapiens, UniProt P05177).
T1 construct: host or cells: insect cells infected with recombinant baculovirus (microsomes)
T1 sequence (P05177 1-516): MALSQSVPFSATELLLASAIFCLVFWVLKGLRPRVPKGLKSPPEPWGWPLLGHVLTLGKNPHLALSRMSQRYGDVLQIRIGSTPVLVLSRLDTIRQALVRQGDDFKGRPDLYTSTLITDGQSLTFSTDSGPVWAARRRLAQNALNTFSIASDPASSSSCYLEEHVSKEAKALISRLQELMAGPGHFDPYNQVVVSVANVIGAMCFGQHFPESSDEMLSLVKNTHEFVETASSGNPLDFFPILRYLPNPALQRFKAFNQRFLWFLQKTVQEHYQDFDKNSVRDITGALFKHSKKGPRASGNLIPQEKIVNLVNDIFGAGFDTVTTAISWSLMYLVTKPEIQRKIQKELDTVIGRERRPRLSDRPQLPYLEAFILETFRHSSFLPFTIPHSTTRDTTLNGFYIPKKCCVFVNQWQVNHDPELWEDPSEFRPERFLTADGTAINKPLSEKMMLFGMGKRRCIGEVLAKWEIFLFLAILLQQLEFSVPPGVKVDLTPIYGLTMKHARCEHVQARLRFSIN
The series is described as follows: Cytochrome profiling CYP1A2 (baculosomes). The class given is in vitro ADME. Conditions: probe fluorogenic probe substrate (not named), 10 μM substrate. The text has this: (§1) Cytochrome P450 (abbreviated CYP, P450 or CYP450) belong to very large and diverse superfamily of haemoproteins which accept both exogenous and endogenous compounds as substrates in enzymatic reactions and play a major role in drug metabolism. Although this class has more than 50 enzymes just 5 of them (CYP1A2, CYP2C9, CYP2C19, CYP2D6 and CYP3A4) are able to metabolise almost 90% of all drugs. Inhibition of these enzymes is one of the major reasons for drug-drug interactions. Consequently, detailed CYP inhibition profiles are a regulatory requirement for all new drugs. Inhibition potencies against the five most relevant CYP isoforms is performed using baculosomes; microsomes prepared from insect cells infected with recombinant baculovirus containing cDNA for a specific human P450 isozyme. The baculosomes are incubated with drug at a concentration of 1 μM in the presence of a probe substrate for 60 minutes at 37° C. The probe is normally metabolised by the baculosomes to produce a fluorescent metabolite. A substrate drug will compete for the isozyme and reduce the metabolism of the probe resulting in a decrease in the fluorescent signal. The percent inhibition due to the presence of the test compound is calculated using the following equation: [formula] • X=fluorescent intensity observed in the presence of test compound • A=fluorescent intensity observed in control • B=fluorescent intensity observed in the presence of the probe control

The next series concerns the target T2, CYP3A4 (Homo sapiens, UniProt P08684).
T2 construct: host or cells: insect cells infected with recombinant baculovirus (microsomes)
The series is described as follows: Cytochrome profiling CYP3A4 (baculosomes). The class given is in vitro ADME. Conditions: probe fluorogenic probe substrate (not named), 10 μM substrate.
Source text: as §1

Molecules are shown by their SMILES.

T2 sequence (P08684 whole entry): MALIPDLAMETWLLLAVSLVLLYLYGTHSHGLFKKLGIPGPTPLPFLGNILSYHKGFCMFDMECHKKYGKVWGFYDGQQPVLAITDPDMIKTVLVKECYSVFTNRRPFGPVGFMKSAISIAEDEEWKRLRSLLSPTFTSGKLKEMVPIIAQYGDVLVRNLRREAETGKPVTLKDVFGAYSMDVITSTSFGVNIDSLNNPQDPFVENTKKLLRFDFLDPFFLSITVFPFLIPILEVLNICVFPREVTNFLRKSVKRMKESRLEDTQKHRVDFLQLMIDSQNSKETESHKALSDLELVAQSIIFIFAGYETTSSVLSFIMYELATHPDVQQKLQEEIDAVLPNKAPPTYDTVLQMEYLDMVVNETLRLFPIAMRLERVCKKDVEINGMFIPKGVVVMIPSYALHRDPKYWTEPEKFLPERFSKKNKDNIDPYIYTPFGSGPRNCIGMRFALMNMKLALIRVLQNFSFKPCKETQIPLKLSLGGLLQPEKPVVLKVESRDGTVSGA

With `COc1ccc(Cl)c(C(=O)NCC23CC4(F)CC(F)(CC(F)(C4)C2)C3)c1` [Compound 1, 2-Chloro-N-((3,5,7-trifluoroadamantan-1-yl)methyl)-5-methoxybenzamide], in the series on P-gp (human MDR1), the Papp A→B – broadly, the apparent permeability from the apical to the basolateral side of a cell layer – at 30 min, 10 μM was 30.3 ×10⁻⁶ cm/s and the apparent permeability from basolateral to apical (Papp B→A) (as a rule, how fast a substance crosses the layer from the basolateral side) at 30 min, 10 μM came to 44.2 ×10⁻⁶ cm/s. Besides, in series [1], the “lipophilicity compared with compound 31” value is “less lipophilic than compound 31”, the logD7.4 is 2.83 and the chromatographic logD is 2.83. The inhibition (in general, the drop in the measured response relative to a control, in per cent) at 60 min, 1 μM against CYP1A2 turned out to be 5.48%. At CYP3A4, the inhibition at 60 min, 1 μM is 89.9%.

In the series with P-gp (human MDR1), `COc1ccc(Cl)c(C(=O)NCC23CC4CC(F)(CC(F)(C4)C2)C3)c1` [Compound 2, 2-Chloro-N-((3,5-difluoroadamantan-1-yl)methyl)-5-methoxybenzamide] had a Papp A→B at 30 min, 10 μM of 40 ×10⁻⁶ cm/s and a Papp B→A at 30 min, 10 μM of 54.8 ×10⁻⁶ cm/s. Moreover, in series [1], the “lipophilicity compared with compound 31” value is “less lipophilic than compound 31”, the logD7.4 amounted to 2.85 and the chromatographic logD was 2.85. At CYP1A2, this compound had an inhibition at 60 min, 1 μM of 7.04%. On CYP3A4, this compound displayed an inhibition at 60 min, 1 μM of 89.9%.

With `COc1ccc(Cl)c(C(=O)NCC23CC4CC(CC(F)(C4)C2)C3)c1` [Compound 3, 2-Chloro-N-((3-fluoroadamantan-1-yl)methyl)-5-methoxybenzamide], in the series with P-gp (human MDR1), the Papp A→B at 30 min, 10 μM was 28.1 ×10⁻⁶ cm/s and the apparent permeability from basolateral to apical (Papp B→A) at 30 min, 10 μM worked out at 34.3 ×10⁻⁶ cm/s. In series [1], the “lipophilicity compared with compound 31” value was “less lipophilic than compound 31”, the logD7.4 is reported as 3.27 and the chromatographic logD turned out to be 3.27. Also, the inhibition at 60 min, 1 μM against CYP1A2 came to 7.86%. Also, the inhibition at 60 min, 1 μM on CYP3A4 turned out to be 88.8%.

Take `COc1ccc(Cl)c(C(=O)NCC23CC4CC(CC(C4)C2)C3)c1` [Compound 31, reference compound]: in the series on P-gp (human MDR1), the Papp A→B at 30 min, 10 μM was 40.9 ×10⁻⁶ cm/s and the Papp B→A at 30 min, 10 μM turned out to be 23.6 ×10⁻⁶ cm/s. In series [1], the logD7.4 amounted to 4.23 and the chromatographic logD was 4.23. This compound yielded an inhibition at 60 min, 1 μM against CYP1A2 of 25.7%. The compound also gave an inhibition at 60 min, 1 μM on CYP3A4 of 84.4%.
